Data from publication PMC12655529, “Serendipitous Hinge Modulation Hypothetically Reprograms Caerin 1.1-LC Antibacterial Mechanism and Gram-Negative Selectivity” (Pharmaceutics, 2025).
Ends that are not written are not given here.

Key:
[1] = tested on: Escherichia coli ATCC 8739; assay type: cell-based; conditions: ATCC 8739
Method: (§1) The antimicrobial activities of the peptides were evaluated by determining their minimal inhibitory concentration (MIC) and minimal bactericidal concentration (MBC) values following reported protocols [20]. The tested microorganisms included seven Gram-negative bacterial strains (Escherichia coli ATCC 8739, E. coli ATCC-BAA 2340, E. coli NCTC 13846, Klebsiella pneumoniae ATCC 43816, K. pneumoniae ATCC BAA-2342, Pseudomonas aeruginosa ATCC 9027, Acinetobacter baumannii ATCC BAA-747), three Gram-positive bacterial strains (Staphylococcus aureus ATCC 6538, Enterococcus faecalis NCTC 12697, MRSA NCTC 12493, and the fungal strain Candida albicans ATCC 10231. For the assay, each bacterial strain was cultured overnight at 37 °C in 100 mL of medium in a flask. The cultures were then subcultured to reach the logarithmic growth phase and diluted to 5 × 10^5 CFU/mL. Peptide samples were serially diluted two-fold in microplates, with concentrations ranging from 128 μM to 1 μM. The diluted bacterial suspensions were mixed with the peptide solutions and incubated overnight at 37 °C. The MIC values were determined by measuring the absorbance of each well using a Synergy HT plate reader (Agilent, Cheshire, UK). For MBC determination, aliquots from wells showing no visible growth were inoculated onto agar plates to assess bacterial viability. Each experiment was repeated independently three times and conducted in three independent replicates.

E. coli ATCC BAA-2340 = assay type: cell-based, Escherichia coli
Method: as §1

E. coli NCTC 13846 = assay type: cell-based, Escherichia coli
Method: as §1

[2] = tested on: Klebsiella pneumoniae ATCC 43816; assay type: cell-based; conditions: ATCC 43816
Method: as §1

[3] = tested on: K. pneumoniae ATCC BAA-2342; assay type: cell-based, Klebsiella pneumoniae
Method: as §1

[4] = tested on: Pseudomonas aeruginosa ATCC 9027; assay type: cell-based
Method: as §1

[5] = tested on: Acinetobacter baumannii ATCC BAA-747; assay type: cell-based; conditions: ATCC BAA-747
Method: as §1

[6] = tested on: Staphylococcus aureus ATCC 6538; assay type: cell-based; conditions: ATCC 6538
Method: as §1

[7] = tested on: Enterococcus faecalis NCTC 12697; assay type: cell-based; conditions: NCTC 12697
Method: as §1

MRSA NCTC 12493 = assay type: cell-based, Staphylococcus aureus
Method: as §1

horse red blood cells = experiment: Haemolysis assay; assay type: cell-based; conditions: concentration inducing 10% haemolysis of horse erythrocytes; 4% (v/v) in PBS, 2 h, 37 °C, absorbance 570 nm; no haemolysis at maximum testing concentration (128 μM) recorded as 256 μM
Method: The peptide cytotoxicity against mammalian erythrocytes was evaluated by haemolysis assay on horse red blood cells (E&O Laboratories Ltd., Falkirk, UK). Fresh horse blood was washed three times with PBS and resuspended to a final concentration of 4% (v/v) in PBS. The diluted blood suspension was then mixed with peptide solutions at varying concentrations and incubated for 2 h at 37 °C. Red blood cell suspensions treated with 0.1% Triton X-100 and PBS were used as controls. The Triton X-100-treated suspension was the positive control (for 100% haemolysis), while the PBS-treated suspension was the blank control. Following incubation, the mixtures were centrifuged at 1000× g for 10 min to separate erythrocytes from the supernatant. The absorbance of the supernatants was detected at 570 nm. The percentage haemolysis was calculated by following the equationPercentage Haemolysis = (AbsSample − AbsBlank)/(AbsPositive − AbsBlank) × 100%

Gram-positive bacteria = experiment: Geometric mean MIC and therapeutic index, Gram-positive; assay type: cell-based; conditions: geometric mean of MICs
E. coli (ATCC-BAA 2340) = assay type: cell-based, Escherichia coli; conditions: ATCC-BAA 2340
Method: The peptide sensitivity was determined in different salt- and serum-containing environments. Bacterial strains were prepared following the MIC detection protocol described previously. To evaluate peptide sensitivity under physiological conditions, various concentrations of salt ions (150 mM NaCl, 4.5 mM KCl, 2 mM CaCl2, 1 mM MgCl2, 8 µM ZnCl2, 6 µM NH4Cl, or 4 µM FeCl3) and serum (10% FBS) were prepared in McCartney bottles prior to the addition of bacterial suspensions. The subcultured bacterial suspensions were then introduced to these modified media conditions. For MIC determination, the treated bacterial suspensions were diluted and dispensed into 96-well plates containing peptide solutions at graded concentrations. This assay allowed for the detection of potential alterations in MIC values, serving as an indicator of peptide sensitivity under different physiological conditions. All experiments were independently repeated three times, each with three replicates.

Gram-negative bacteria = experiment: Geometric mean MIC and therapeutic index, Gram-negative; assay type: cell-based; conditions: geometric mean of MICs

Substance	MBC, E. coli (ATCC 8739) [1]	MIC, E. coli (ATCC 8739) [1]	MBC, E. coli (ATCC BAA-2340) (E. coli ATCC BAA-2340)	MIC, E. coli (ATCC BAA-2340) (E. coli ATCC BAA-2340)	MBC, K. pneumoniae (ATCC 43816) [2]	MIC, K. pneumoniae (ATCC 43816) [2]	MBC, K. pneumoniae (ATCC BAA-2342) [3]	MIC, K. pneumoniae (ATCC BAA-2342) [3]	MBC, P. aeruginosa (ATCC 9027) [4]	MIC, P. aeruginosa (ATCC 9027) [4]	MBC, A. baumannii (ATCC BAA-747) [5]	MIC, A. baumannii (ATCC BAA-747) [5]	MBC, S. aureus (ATCC 6538) [6]	MIC, S. aureus (ATCC 6538) [6]	MBC, E. faecalis (NCTC 12697) [7]	MIC, E. faecalis (NCTC 12697) [7]	MBC, MRSA (NCTC 12493) (MRSA NCTC 12493)	MIC, MRSA (NCTC 12493) (MRSA NCTC 12493)	HC10 (horse red blood cells)	GM MIC Gram-Positive (Gram-positive bacteria)	further results
GLLSVLGSLKKWVPHVVPLIAKKL-NH2 [Caerin 1.1-LC 11K.12K.12W]	2 µM	2 µM	4 µM	2 µM	4 µM	2 µM	8 µM	8 µM	4 µM	2 µM	4 µM	4 µM	2 µM	1 µM	32 µM	32 µM	16 µM	1 µM	8.5 µM	2 µM	MBC, E. coli (NCTC 13846) (E. coli NCTC 13846): 4 µM; MIC, E. coli (NCTC 13846) (E. coli NCTC 13846): 2 µM; MIC, Ca^2+ (E. coli (ATCC-BAA 2340)): 32 µM; MIC, Control (E. coli (ATCC-BAA 2340)): 4 µM; MIC, FBS (E. coli (ATCC-BAA 2340)): 8 µM; MIC, Fe^3+ (E. coli (ATCC-BAA 2340)): 4 µM; MIC, K^+ (E. coli (ATCC-BAA 2340)): 4 µM; MIC, Mg^2+ (E. coli (ATCC-BAA 2340)): 8 µM; MIC, NH4^+ (E. coli (ATCC-BAA 2340)): 4 µM; MIC, Na^+ (E. coli (ATCC-BAA 2340)): 4 µM
GLLSVLGSLKKIVPHVVPLIAKKL-NH2 [Caerin 1.1-LC 11K.22K]	2 µM	1 µM	2 µM	2 µM	16 µM	8 µM	4 µM	4 µM	8 µM	4 µM	16 µM	4 µM	16 µM	4 µM	64 µM	64 µM	8 µM	4 µM	10.3 µM	3.17 µM	MBC, E. coli (NCTC 13846) (E. coli NCTC 13846): 8 µM; MIC, E. coli (NCTC 13846) (E. coli NCTC 13846): 4 µM; MIC, Ca^2+ (E. coli (ATCC-BAA 2340)): 32 µM; MIC, Control (E. coli (ATCC-BAA 2340)): 4 µM; MIC, FBS (E. coli (ATCC-BAA 2340)): 16 µM; MIC, Fe^3+ (E. coli (ATCC-BAA 2340)): 8 µM; MIC, K^+ (E. coli (ATCC-BAA 2340)): 8 µM; MIC, Mg^2+ (E. coli (ATCC-BAA 2340)): 16 µM; MIC, NH4^+ (E. coli (ATCC-BAA 2340)): 8 µM; MIC, Na^+ (E. coli (ATCC-BAA 2340)): 8 µM
GLLSVLGSLKLIVPKVVPLIAEKL-NH2 [Caerin 1.1-LC PKVVP]	8 µM	4 µM	4 µM	2 µM	32 µM	16 µM	32 µM	8 µM	32 µM	8 µM	32 µM	32 µM	32 µM	16 µM	>128 µM	>128 µM	8 µM	8 µM	25.8 µM	12.14 µM	MBC, E. coli (NCTC 13846) (E. coli NCTC 13846): 4 µM; MIC, E. coli (NCTC 13846) (E. coli NCTC 13846): 2 µM
GLLSVLKSLKKIVPHVVPKIAEKL-NH2 [Caerin 1.1-LC 7.11.19K]	2 µM	2 µM	2 µM	2 µM	4 µM	4 µM	4 µM	4 µM	4/4 µM	4/4 µM	8 µM	4 µM	4 µM	4 µM	128 µM	128 µM	8 µM	8 µM	46.5 µM	3.28 µM	MBC, E. coli (NCTC 13846) (E. coli NCTC 13846): 4 µM; MIC, E. coli (NCTC 13846) (E. coli NCTC 13846): 4 µM; MIC, Ca^2+ (E. coli (ATCC-BAA 2340)): 64 µM; MIC, Control (E. coli (ATCC-BAA 2340)): 2 µM; MIC, FBS (E. coli (ATCC-BAA 2340)): 16 µM; MIC, Fe^3+ (E. coli (ATCC-BAA 2340)): 2 µM; MIC, K^+ (E. coli (ATCC-BAA 2340)): 2 µM; MIC, Mg^2+ (E. coli (ATCC-BAA 2340)): 4 µM; MIC, NH4^+ (E. coli (ATCC-BAA 2340)): 2 µM; MIC, Na^+ (E. coli (ATCC-BAA 2340)): 2 µM
GLLSVLGSLKLIVPHIIPLIAEKL-NH2 [Caerin 1.1-LC PHIIP]	8 µM	4 µM	8 µM	4 µM	16 µM	16 µM	16 µM	8 µM	64 µM	32 µM	8 µM	8 µM	8 µM	4 µM	>128 µM	>128 µM	4 µM	4 µM	2.4 µM	8 µM	MBC, E. coli (NCTC 13846) (E. coli NCTC 13846): 8 µM; MIC, E. coli (NCTC 13846) (E. coli NCTC 13846): 4 µM
GLLSVLGSLKLIVPGGGPLIAEKL-NH2 [Caerin 1.1-LC PGGGP]	128 µM	128 µM	> 128 µM	128 µM	>128 µM	>128 µM	>128 µM	>128 µM	>128 µM	>128 µM	>128 µM	>128 µM	>128 µM	>128 µM	>128 µM	>128 µM	>128 µM	>128 µM	256 µM	256 µM	GM MIC Gram-Negative (Gram-negative bacteria): 190.21 µM
GLLSVLGSLKLIVPRVVPLIAEKL-NH2 [Caerin 1.1-LC PRVVP]	8 µM	2 µM	4 µM	2 µM	16 µM	8 µM	32 µM	8 µM	8/8 µM	8/8 µM	32 µM	32 µM	16 µM	8 µM	>128 µM	>128 µM	8 µM	4 µM	25.8 µM	5.94 µM	MBC, E. coli (NCTC 13846) (E. coli NCTC 13846): 16 µM; MIC, E. coli (NCTC 13846) (E. coli NCTC 13846): 4 µM
